Results taken from the NIST ThermoML archive (doi:10.1016/j.tca.2010.04.004).

Assay: mn = molality of the nth substance listed, in mol/kg
Details: 298.15 K, 101 kPa, Liquid, Vibrating tube method

O=S(=O)(O)CC(O)CN1CCOCC1 (stereo not drawn) [3-morpholino-2-hydroxypropanesulfonic acid] + O
Details	mass density [kg/m3]
m1 = 0.0126	998.04
m1 = 0.0178	998.45
m1 = 0.0228	998.84
m1 = 0.027	999.17
m1 = 0.036	999.87
m1 = 0.045	1000.57
m1 = 0.0519	1001.1
m1 = 0.063	1001.95
m1 = 0.0706	1002.53
m1 = 0.0771	1003.03

O=S(=O)(O)CCCCN1CCOCC1 [4-morpholinebutanesulfonic acid] + O
Details	mass density [kg/m3]
m1 = 0.0134	997.89
m1 = 0.0201	998.3
m1 = 0.0282	998.8
m1 = 0.0365	999.31
m1 = 0.0456	999.87
m1 = 0.054	1000.38
m1 = 0.0636	1000.96
m1 = 0.0702	1001.35
m1 = 0.0768	1001.74
m1 = 0.0827	1002.09

O=S(=O)(O)CCN1CCOCC1 [4-morpholineethanesulfonic acid] + O
Details	mass density [kg/m3]
m1 = 0.0114	997.79
m1 = 0.018	998.22
m1 = 0.0237	998.59
m1 = 0.0301	999.01
m1 = 0.0403	999.67
m1 = 0.0513	1000.38
m1 = 0.0614	1001.03
m1 = 0.0722	1001.72
m1 = 0.0822	1002.35
m1 = 0.0947	1003.14

O=S(=O)(O)CCCN1CCOCC1 [4-morpholinepropanesulfonic acid] + O
Details	mass density [kg/m3]
m1 = 0.0077	997.53
m1 = 0.0172	998.13
m1 = 0.0292	998.88
m1 = 0.0386	999.46
m1 = 0.0496	1000.14
m1 = 0.0556	1000.5
m1 = 0.0611	1000.84
m1 = 0.0668	1001.19
m1 = 0.0736	1001.59
m1 = 0.0812	1002.05
m1 = 0.0869	1002.39

[Br-].[K+] [potassium bromide] + O
Details	mass density [kg/m3]
m1 = 0.05	1001.25
m1 = 0.16	1010.47
m1 = 0.25	1017.89

[Cl-].[K+] [potassium chloride] + O
Details	mass density [kg/m3]
m1 = 0.05	999.45
m1 = 0.16	1004.53
m1 = 0.25	1008.66

CC(=O)[O-].[K+] [potassium ethanoate] + O
Details	mass density [kg/m3]
m1 = 0.05	999.46
m1 = 0.16	1004.6
m1 = 0.25	1008.74

[Cl-].[Na+] [sodium chloride] + O
Details	mass density [kg/m3]
m1 = 0.05	999.12
m1 = 0.16	1003.6
m1 = 0.25	1007.22
